Results from paper PMC6401476, “The Evolution of SlyA/RovA Transcription Factors from Repressors to Countersilencers in Enterobacteriaceae” (mBio, 2019).

Experiments:
[1] = biological target: T1, SlyA (Salmonella enterica, UniProt P40676); assay: intrinsic tryptophan fluorescence quenching; 1H, […]-TROSY NMR; format: binding
T1 construct: His-SlyA (N-terminal 6×His-tagged)

[2] = biological target: T1, SlyA; assay: crystal structure at […] Å; 1H, […]-TROSY NMR; supported by in vitro transcription; format: binding
[3] = biological target: the molecule itself; assay: crystal structure; His-SlyA co-crystallised with 75 mM sodium salicylate; sitting-drop vapor diffusion, room temperature; 20% PEG 400, 10% glycerol, 0.1 M phosphate-citrate buffer pH 4.2, 0.2 M ammonium sulfate; space group P21212, two SlyA molecules in the asymmetric unit, each dimer completed by space group symmetry

T1 sequence (P40676 whole entry): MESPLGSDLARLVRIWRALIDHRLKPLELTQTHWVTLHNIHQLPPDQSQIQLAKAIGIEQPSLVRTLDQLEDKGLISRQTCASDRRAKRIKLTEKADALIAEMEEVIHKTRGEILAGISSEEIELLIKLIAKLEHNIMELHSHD

Molecule: O=C(O)c1ccccc1 [benzoate]
- Kd [1]: ~40 µM

Molecule: O=C(O)c1ccccc1O [salicylate]
- crystal structure at 2.3 Å; 1H,15N-TROSY NMR; supported by in vitro transcriptio [2]: The crystal structure of the SlyA dimer with salicylate bound at sites I and II was determined

B1: SlyA of Salmonella enterica serovar Typhimurium (His-SlyA) (natural protein)
chain: ESPLGSDLARLVRIWRALIDHRLKPLELTQTHWVTLHNIHQLPPDQSQIQLAKAIGIEQPSLVRTLDQLEDKGLISRQTCASDRRAKRIKLTEKADALIAEMEEVIHKTRGEILAGISSEEIELLIKLIAKLEHNIMELHSHD
notes: SlyA, MarR family transcription factor, Salmonella enterica serovar Typhimurium; the tips of the wings are not seen in the model; Residue numbers in the text are based on an alignment of SlyA orthologs and are not in register with the numbers of the deposited PDB file 3DEU; Strains were built in the ATCC 14028s background; also called SlyASTM; SlyASTm; not shown: 6xHis, N-terminal, kept
- stoichiometry N [3]: 2
